“Also recorded” adds a separate entry of the source.
Key:
CYP3A4 = CYP3A4 (Homo sapiens, UniProt P08684); assay: clinical; conditions: in vivo
Method: On Days 1 and 7, single dose of 2 mg MDZ as commercially available liquid formulation, containing 2 mg/mL MDZ administered orally under fed conditions.

IFN-α/pSTAT3 pathway = assay: MDZ DDI study ex vivo IFN-α/pSTAT3 in CD4+ T-cells; conditions: 150 mg q.d., Day 6, ex vivo stimulation of whole blood
IL6/pSTAT1 pathway = assay: MDZ DDI study ex vivo IL6/pSTAT1 in CD4+ T-cells; conditions: 150 mg q.d., Day 6, ex vivo stimulation of whole blood
IL6/pSTAT3 pathway = assay: MDZ DDI study ex vivo IL6/pSTAT3 in CD4+ T-cells; conditions: 150 mg q.d., Day 6, ex vivo stimulation of whole blood
IFN-α/pSTAT1 pathway = assay: MDZ DDI study ex vivo IFN-α/pSTAT1 in CD4+ T-cells; conditions: 150 mg q.d., Day 6, ex vivo stimulation of whole blood
IL2/pSTAT5 pathway = assay: MDZ DDI study ex vivo IL2/pSTAT5 in CD4+ T-cells; conditions: 150 mg q.d., Day 6, ex vivo stimulation of whole blood

CYP3A4, sequence (P08684 whole entry): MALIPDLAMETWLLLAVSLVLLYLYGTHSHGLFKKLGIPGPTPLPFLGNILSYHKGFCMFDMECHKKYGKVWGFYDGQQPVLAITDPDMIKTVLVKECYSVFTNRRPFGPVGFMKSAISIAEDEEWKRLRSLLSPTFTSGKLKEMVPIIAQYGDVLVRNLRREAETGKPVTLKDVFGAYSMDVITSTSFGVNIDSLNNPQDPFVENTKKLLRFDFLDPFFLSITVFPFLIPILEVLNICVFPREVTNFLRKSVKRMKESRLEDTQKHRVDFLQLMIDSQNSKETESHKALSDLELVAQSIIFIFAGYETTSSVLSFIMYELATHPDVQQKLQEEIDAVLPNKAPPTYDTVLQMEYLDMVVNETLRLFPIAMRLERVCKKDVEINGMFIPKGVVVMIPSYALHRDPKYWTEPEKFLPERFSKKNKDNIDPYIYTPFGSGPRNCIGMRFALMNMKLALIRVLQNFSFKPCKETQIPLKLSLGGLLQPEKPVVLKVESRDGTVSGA

| SMILES | AUC(0-inf) (CYP3A4) [ng·h/mL] | Cmax (CYP3A4) [ng/mL] | MDZ AUC0-∞ LS Geometric Mean Ratio (90% CI) (CYP3A4) | AUC(0-inf) (CYP3A4; po, 2 mg) [ng·h/mL] | Cmax (CYP3A4; po, 2 mg) [ng/mL] | effect on IFN-α/pSTAT3 pathway (IFN-α/pSTAT3 pathway) | effect on IL6/pSTAT1 pathway (IL6/pSTAT1 pathway) | effect on IL6/pSTAT3 pathway (IL6/pSTAT3 pathway) | effect on IFN-α/pSTAT1 pathway (IFN-α/pSTAT1 pathway) | effect on IL2/pSTAT5 pathway (IL2/pSTAT5 pathway) |
| --- | --- | --- | --- | --- | --- | --- | --- | --- | --- | --- |
| Cc1ncc2n1-c1ccc(Cl)cc1C(c1ccccc1F)=NC2 [MDZ, midazolam] | 27.9 | 6.24 | 121 (109; 133) % | 23.5 | 5.95 |  |  |  |  |  |
| Cc1cc(C#N)ncc1Oc1cc(Nc2ccc(N3CCOCC3)nn2)c2ncn(C)c2n1 [Compound 1, 4-methyl-5-[3-methyl-7-[(6-morpholin-4-ylpyridazin-3-yl)amino]imidazo[4,5-b]pyridin-5-yl]oxypyridine-2-carbonitrile] |  |  |  |  |  | concentration-dependent inhibition | concentration-dependent inhibition | Day 1 and Day 6 values were similar; also recorded: no inhibition and no concentration-dependent effect | concentration-dependent inhibition | Day 1 and Day 6 values were similar; also recorded: no inhibition and no concentration-dependent effect |

— patent publication US20240325404A1, “TREATMENT OF INFLAMMATORY DISEASES” (Galapagos NV, priority 2021, published 2024)
